Test results: patent US11046945B2, “Labeled glutaminase proteins, isolated glutaminase protein mutants, methods of use, and kit” (CORNELL UNIVERSITY, priority 2013, dated 2021)

Biological target: T1, 488-GAC (WT) (Mus musculus, UniProt D3Z7P3)
T1 construct: plasmid (residues 72-603 for GAC, 72-674 for KGA); His-tag with thrombin cleavage site (N, cleaved yes); made in house; host or cells: pET23a vector
T1 sequence (D3Z7P3 72-603 isoform D3Z7P3-2): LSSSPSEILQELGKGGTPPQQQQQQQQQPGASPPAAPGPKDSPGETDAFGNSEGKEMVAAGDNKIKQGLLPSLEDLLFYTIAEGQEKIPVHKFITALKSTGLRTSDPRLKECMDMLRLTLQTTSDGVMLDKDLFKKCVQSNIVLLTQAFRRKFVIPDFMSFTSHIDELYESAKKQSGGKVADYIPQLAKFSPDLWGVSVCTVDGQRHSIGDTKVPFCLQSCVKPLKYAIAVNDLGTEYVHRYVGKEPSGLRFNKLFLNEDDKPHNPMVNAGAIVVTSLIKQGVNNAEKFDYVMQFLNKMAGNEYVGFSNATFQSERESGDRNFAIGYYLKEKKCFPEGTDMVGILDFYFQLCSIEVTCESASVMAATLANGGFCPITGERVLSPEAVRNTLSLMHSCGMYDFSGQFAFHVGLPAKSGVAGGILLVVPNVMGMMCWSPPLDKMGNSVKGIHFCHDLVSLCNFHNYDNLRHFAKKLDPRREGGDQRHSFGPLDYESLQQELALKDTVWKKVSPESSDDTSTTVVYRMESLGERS
Assay: Real-time binding read-out by 488-GAC fluorescence quenching
Conditions: for quenching of 488-GAC fluorescence (direct binding): 10 nM 488-GAC, no QSY 9-GAC
Description: Real-time fluorescence monitoring of 488-GAC fluorescence and NADH fluorescence was performed on a Varian Carry Eclipse Fluorometer, whereas small molecule inhibition and binding titrations were performed in a 96-well format using Grenier non-binding 96-well plates in a Tecan Saphire absorbance and fluorescence plate reader. Samples for monitoring real time binding of 968 to 488-GAC were prepared by adding 10 […] (490 nm excitation/520 nm emission). Similarly, this method was replicated for monitoring real time binding of 968 to KGA and mutant forms of GAC, namely 488-D391K-GAC and 488-K316E-D391K-R459E-GAC. Titrations of 968 with mutant forms of GAC were done in triplicate and quantified by the following equation
[formula] where F is the normalized fluorescence at given drug concentration (i.e., F/F0), and Fsat is the normalized fluorescence at saturating concentrations of drug, as shown in FIG. 7A. […] 10 nM WT GAC was added and allowed to equilibrate 2 minutes before beginning to monitor fluorescence of 488-GAC (490 nm excitation, 520 nm emission) and NADH fluorescence (340 nm excitation, 490 nm emission). […] The activity of GAC was indirectly measured by the NADH produced by the added glutamate dehydrogenase, which converts the product of glutaminase activity, glutamate, to α-ketoglutarate and ammonia through reducing NAD^+ to NADH. Because solutions containing glutamine undergo non-enzymatic degradation to glutamate, samples were further analyzed by subtracting the evolved NADH produced by glutaminase in the presence of 968, BPTES, or the equivalent volume of DMSO as a control, by the evolved NADH produced in the absence of glutaminase under identical experimental conditions. Evolved NADH was quantified using a standard curve of freshly prepared NADH (Sigma) in 50 mM Tris-Acetate pH=8.5, 0.1 mM EDTA.
Procedures for the described real-time binding and inhibition assays were adapted for 96-well microtiter format with minor alterations. […] Quenching was quantified by subtracting the normalized fluorescence by one (i.e., 1-F/F0). […]

binding to 488-labeled GAC (WT) (20 nM 488-labeled protein, 968 titration) | Compound | quenching of 488-GAC fluorescence (direct binding)
 | O=C(Cc1ccccc1)Nc1nnc(CCSCCc2nnc(NC(=O)Cc3ccccc3)s2)s1 [BPTES] | without affecting the fluorescence emission
capable of binding | CN(C)c1ccc(C2Nc3ccc4ccccc4c3C3=C2C(=O)CC(C)(C)C3)cc1Br (stereo not drawn) [compound 968] | concentration dependent quenching
